This is an account of results in patent US20210261512A1, “NOVEL COMPOUNDS” (INFLAZOME LIMITED, priority 2018, published 2021).

Structures are written as SMILES.

The target in series [1] is T1, NLRP3 (Homo sapiens, UniProt Q96P20). The series is described as follows: Human whole blood IL1β release assay. Type of series: cell-based. The settings on record: LPS 1 μg/ml, nigericin 10 μM, IL-1β AlphaLisa, 10 μM top dose (Example 2: top dose of 30 μM), read-out: HWB IC50. In short, it runs like this: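 Healthy-donor heparinised human whole blood with 1 μg/ml LPS, compound (8-point half-log dilution, 10 μM top dose unless stated; 0.1% DMSO vehicle) for 3 h at 37 °C, then nigericin 10 μM final for 1 h. Supernatant IL-1β by AlphaLISA; IC50 from 4-parameter variable-slope fit.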

The nature of series [2]: PK, intravenous administration. Type of series: in vivo. The conditions noted are these: rat, plasma, male Sprague Dawley rats, dose about 1 mg/kg; for Vd: read-out: Vdss. As for the experimental part:
Pharmacokinetic parameters were determined in male Sprague Dawley rats (Vital River Laboratory Animal Technology Co Ltd, Beijing, China, 6-9 weeks old). Animals were maintained under a 12 h light/dark cycle. Animals had free access to food and water, except that orally dosed animals were food deprived overnight prior to the study.
For intravenous administration, compounds were formulated as a solution (in DMSO:water [10:90] or in DMSO:PBS [10:90]) in 2 mL/kg dosing volume and administered via tail vein. For oral administration, compounds were formulated as a solution (in 0.5% methylcellulose in water) in […] dosing volume and administered orally.
Serial blood samples (about 200 μL) were taken from each animal at each of 8 time-points post dose ([…], 0.25, 0.5, 1, 2, 4, 8 and 24 h). Samples were held on ice for no longer than 30 minutes before centrifugation (5,696 rpm (3,000 g) for 15 minutes) for plasma generation. Plasma was frozen on dry ice prior to bioanalysis. PK parameters were generated from LC-MS/MS data using Phoenix WinNonlin 6.3 software.

Series [3] addresses T1, NLRP3. The series is described as follows: THP-1 cells pyroptosis assay. Format: cell-based. Also noted: Seed THP-1 cells (25,000 cells/well) containing 1.0 μg/ml LPS; host or cells: THP-1. The settings on record: LPS 1.0 μg/ml, nigericin 5 μM, resazurin readout, 10 μM top dose (Example 2: top dose of 30 μM). In short, it runs like this: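 THP-1 cells (25,000/well) primed with 1 μg/ml LPS in serum-free RPMI, treated with compound (8-point dilution, 10 μM top unless stated; 0.1% DMSO) 3 h at 37°C, then nigericin 5 μM 1 h. Viability read by resazurin (100 μM, 1-2 h) fluorescence; IC50 from 4-parameter fit.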
For orientation: Alamar Blue is a resazurin reagent that responds to reducing activity.

T1 sequence (Q96P20 whole entry): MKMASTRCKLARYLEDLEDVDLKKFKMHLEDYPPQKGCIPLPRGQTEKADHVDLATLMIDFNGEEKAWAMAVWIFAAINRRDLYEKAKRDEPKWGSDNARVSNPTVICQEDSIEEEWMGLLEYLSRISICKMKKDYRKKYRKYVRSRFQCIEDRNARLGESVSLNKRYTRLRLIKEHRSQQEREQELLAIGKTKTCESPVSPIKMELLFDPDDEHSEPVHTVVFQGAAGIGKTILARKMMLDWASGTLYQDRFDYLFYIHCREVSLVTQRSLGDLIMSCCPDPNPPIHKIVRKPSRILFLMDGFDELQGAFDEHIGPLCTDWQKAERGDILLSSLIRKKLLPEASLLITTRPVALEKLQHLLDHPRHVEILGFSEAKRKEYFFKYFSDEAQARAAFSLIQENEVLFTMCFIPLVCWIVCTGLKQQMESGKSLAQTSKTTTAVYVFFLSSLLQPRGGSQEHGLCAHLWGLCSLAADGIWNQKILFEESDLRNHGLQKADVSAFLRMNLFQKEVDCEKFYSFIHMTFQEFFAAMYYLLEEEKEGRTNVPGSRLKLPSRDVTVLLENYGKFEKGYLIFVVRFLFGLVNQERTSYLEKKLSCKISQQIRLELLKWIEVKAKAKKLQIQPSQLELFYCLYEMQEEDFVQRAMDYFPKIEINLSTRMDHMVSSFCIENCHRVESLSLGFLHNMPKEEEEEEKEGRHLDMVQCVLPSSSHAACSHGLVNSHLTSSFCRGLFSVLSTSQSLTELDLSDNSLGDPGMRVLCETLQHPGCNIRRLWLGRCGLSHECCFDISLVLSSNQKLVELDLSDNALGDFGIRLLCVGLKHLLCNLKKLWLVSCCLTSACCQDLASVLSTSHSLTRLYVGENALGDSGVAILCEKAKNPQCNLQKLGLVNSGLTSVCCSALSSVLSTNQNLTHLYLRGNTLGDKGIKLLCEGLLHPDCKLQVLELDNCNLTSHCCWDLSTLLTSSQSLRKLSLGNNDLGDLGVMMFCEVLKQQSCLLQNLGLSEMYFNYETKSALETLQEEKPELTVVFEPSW

A word on the IC50: it is the concentration that gives 50% inhibition. Usually AUC stands for the area under the concentration-time curve, a measure of exposure. Lower therefore signals low exposure. By clearance is commonly meant the volume of plasma or blood freed of the substance per unit of time. Read a low clearance as a low capacity for elimination. As usually defined, the half-life is the time in which the quantity being followed falls by half. A higher half-life goes with slow loss. In the case of `CC(C)N1CC(S(=O)(=O)c2nnc(Nc3c4c(cc5c3CCC5)CCC4)[nH]2)C1` [Example 22, N-(1,2,3,5,6,7-hexahydro-s-indacen-4-yl)-5-((1-isopropylazetidin-3-yl)sulfonyl)-4H-1,2,4-triazol-3-amine], in series [1], the half-inhibitory concentration (IC50) was ≤ 10 µM. Also, in series [2], the area under the curve (AUC) was found to be 364 ng·h/mL, the clearance was determined as 45.8 mL/min/kg, the half-life was 24 min and the Vd stood at 1.09 L/kg. Moreover, in series [3], the half-inhibitory concentration (IC50) is ≤ 5 µM.

Turning to `CCN(CC)CCCS(=O)(=O)c1nnc(Nc2c3c(cc4c2CCC4)CCC3)[nH]1` [Example 24, 5-((3-(diethylamino)propyl)sulfonyl)-N-(1,2,3,5,6,7-hexahydro-s-indacen-4-yl)-4H-1,2,4-triazol-3-amine], in series [1], the 50% inhibitory concentration (IC50) is ≤ 1 µM. Moreover, in series [2], the AUC was 173 ng·h/mL, the clearance came out at 96.5 mL/min/kg, the half-life was 48 min and the Vd is 5.26 L/kg. Also, in series [3], the IC50 is ≤ 0.5 µM.

In the case of `COc1cc(-c2cc(F)cc(C(C)C)c2Nc2nnc(S(=O)(=O)c3ccccc3)[nH]2)ccn1` [Example 45, N-(4-fluoro-2-isopropyl-6-(2-methoxypyridin-4-yl)phenyl)-3-(phenylsulfonyl)-1H-1,2,4-triazol-5-amine], the concentration for half-maximal inhibition (IC50) in series [1] is ≤ 5 µM. For the same compound, in series [2], the AUC worked out at 545 ng·h/mL, the clearance came to 30.6 mL/min/kg, the half-life is 72 min and the Vd is 1.59 L/kg. Also, the 50% inhibitory concentration (IC50) in series [3] is ≤ 5 µM.

`CN(C)CCCS(=O)(=O)c1nnc(Nc2c3c(cc4c2CCC4)CCC3)[nH]1` [Example 48, 5-((3-(Dimethylamino)propyl)sulfonyl)-N-(1,2,3,5,6,7-hexahydro-s-indacen-4-yl)-4H-1,2,4-triazol-3-amine]: the half-maximal inhibitory concentration (IC50) in series [1] was ≤ 0.5 µM. For the same compound, in series [2], the area under the curve (AUC) was determined as 196 ng·h/mL, the clearance was 85 mL/min/kg, the half-life is 48 min and the Vd was 3.69 L/kg. Moreover, in series [3], the IC50 was ≤ 0.5 µM.

In the case of `O=S(=O)(CCCN1CCCC1)c1nnc(Nc2c3c(cc4c2CCC4)CCC3)[nH]1` [Example 49, N-(1,2,3,5,6,7-hexahydro-s-indacen-4-yl)-5-((3-(pyrrolidin-1-yl)propyl)sulfonyl)-4H-1,2,4-triazol-3-amine], the half-maximal inhibitory concentration (IC50) in series [1] is ≤ 1 µM. For the same compound, in series [2], the area under the curve (AUC) amounted to 168 ng·h/mL, the clearance amounted to 98.9 mL/min/kg, the half-life was 126 min and the Vd came to 8.08 L/kg. For the same compound, the IC50 in series [3] is ≤ 0.5 µM.

`CNCCCS(=O)(=O)c1nnc(Nc2c3c(cc4c2CCC4)CCC3)[nH]1` [Example 54, N-(1,2,3,5,6,7-hexahydro-s-indacen-4-yl)-5-((3-(methylamino)propyl)sulfonyl)-4H-1,2,4-triazol-3-amine]: in series [1], the concentration for half-maximal inhibition (IC50) is ≤ 10 µM. In series [2], the AUC turned out to be 273 ng·h/mL, the clearance stood at 61.1 mL/min/kg, the half-life is 78 min and the Vd was found to be 2.7 L/kg. Moreover, the IC50 in series [3] was ≤ 1 µM.

As to `CN1CCCC1CCS(=O)(=O)c1nnc(Nc2c3c(cc4c2CCC4)CCC3)[nH]1` (stereo not drawn) [Example 60, N-(1,2,3,5,6,7-hexahydro-s-indacen-4-yl)-3-((2-(1-methylpyrrolidin-2-yl)ethyl)sulfonyl)-1H-1,2,4-triazol-5-amine], the IC50 in series [1] was ≤ 5 µM. Besides, in series [2], the AUC was 278 ng·h/mL, the clearance was found to be 60 mL/min/kg, the half-life is 60 min and the Vd came out at 3.24 L/kg. Also, in series [3], the IC50 is ≤ 1 µM.

Take `COc1cc(-c2cc(F)cc(C(C)C)c2Oc2nnc(S(=O)(=O)N3CCC(CN(C)C)C3)[nH]2)ccn1` (stereo not drawn) [Example 69, 1-(1-((5-(4-fluoro-2-isopropyl-6-(2-methoxypyridin-4-yl)phenoxy)-4H-1,2,4-triazol-3-yl)sulfonyl)pyrrolidin-3-yl)-N,N-dimethylmethanamine]: the IC50 in series [1] was ≤ 1 µM. For the same compound, in series [2], the AUC worked out at 267 ng·h/mL, the clearance is 65.5 mL/min/kg, the half-life is 42.6 min and the Vd was 1.29 L/kg. Also, the IC50 in series [3] was ≤ 1 µM.

Take `COc1cc(-c2ccc3c(c2Nc2nnc(S(=O)(=O)c4ccn(C)n4)[nH]2)CCC3)ccn1` [Example 339, N-(5-(2-methoxypyridin-4-yl)-2,3-dihydro-1H-inden-4-yl)-5-((1-methyl-1H-pyrazol-3-yl)sulfonyl)-4H-1,2,4-triazol-3-amine]: the IC50 in series [1] is ≤ 5 µM; in series [3], ≤ 1 µM.

Turning to `NC(=O)c1cccc(S(=O)(=O)c2nnc(Nc3c4c(cc5c3CCC5)CCC4)[nH]2)c1` [Example 341, 3-((5-((1,2,3,5,6,7-hexahydro-s-indacen-4-yl)amino)-4H-1,2,4-triazol-3-yl)sulfonyl)benzamide], the half-inhibitory concentration (IC50) in series [1] is ≤ 10 µM; in series [3] it was ≤ 0.5 µM.

Turning to `[2H]C([2H])([2H])Oc1cc(-c2ccc3c(c2Nc2nnc(S(=O)(=O)N4CC[C@H](C(C)(C)O)C4)[nH]2)CCO3)ccn1` [Example 343, (S)-2-(1-((5-((5-(2-(methoxy-d3)pyridin-4-yl)-2,3-dihydrobenzofuran-4-yl)amino)-4H-1,2,4-triazol-3-yl)sulfonyl)pyrrolidin-3-yl)propan-2-ol], the IC50 in series [1] was ≤ 1 µM; in series [3] it was ≤ 0.5 µM.

`[2H]C([2H])([2H])Oc1cc(-c2ccc3c(c2Nc2nnc(S(=O)(=O)N4CC[C@H](C(C)(C)O)C4)[nH]2)CCC3)ccn1` [Example 344, (S)-2-(1-((5-((5-(2-(methoxy-d3)pyridin-4-yl)-2,3-dihydro-1H-inden-4-yl)amino)-4H-1,2,4-triazol-3-yl)sulfonyl)pyrrolidin-3-yl)propan-2-ol]: the concentration for half-maximal inhibition (IC50) in series [1] is ≤ 5 µM; in series [3], ≤ 0.5 µM.

In the case of `O=S(=O)(c1nnc(Nc2c3c(cc4c2CCC4)CCC3)[nH]1)N1CC[C@H](C2(O)CC2)C1` [Example 345, (S)-1-(1-((5-((1,2,3,5,6,7-hexahydro-s-indacen-4-yl)amino)-4H-1,2,4-triazol-3-yl)sulfonyl)pyrrolidin-3-yl)cyclopropanol], the results for the half-maximal inhibitory concentration (IC50) in series [1] and in series [3] were ≤ 10 µM and ≤ 1 µM, respectively.

Regarding `O=S(=O)(c1nnc(Nc2c3c(cc4c2CCC4)CCC3)[nH]1)N1CC2(CCC(O)C2)C1` (stereo not drawn) [Example 346, 2-((5-((1,2,3,5,6,7-hexahydro-s-indacen-4-yl)amino)-4H-1,2,4-triazol-3-yl)sulfonyl)-2-azaspiro[3.4]octan-6-ol], the half-inhibitory concentration (IC50) is ≤ 5 µM in series [1] and ≤ 1 µM in series [3].

`COC(C)(C)[C@H]1CCN(S(=O)(=O)c2nnc(Nc3c4c(cc5c3CCC5)CCC4)[nH]2)C1` [Example 347, (S)-N-(1,2,3,5,6,7-hexahydro-s-indacen-4-yl)-5-((3-(2-methoxypropan-2-yl)pyrrolidin-1-yl)sulfonyl)-4H-1,2,4-triazol-3-amine]: the IC50 in series [1] is ≤ 10 µM; in series [3], ≤ 1 µM.

In the case of `CN(C)CCn1ccc(S(=O)(=O)c2nnc(Nc3c4c(cc5c3CCC5)CCC4)[nH]2)n1` [Example 349, 5-((1-(2-(dimethylamino)ethyl)-1H-pyrazol-3-yl)sulfonyl)-N-(1,2,3,5,6,7-hexahydro-s-indacen-4-yl)-4H-1,2,4-triazol-3-amine], the concentration for half-maximal inhibition (IC50) is ≤ 5 µM in series [1] and ≤ 0.5 µM in series [3].

Regarding `CC(O)Cn1ccc(S(=O)(=O)c2nnc(Nc3c4c(cc5c3CCC5)CCC4)[nH]2)n1` (stereo not drawn) [Example 352, 1-(3-((5-((1,2,3,5,6,7-hexahydro-s-indacen-4-yl)amino)-4H-1,2,4-triazol-3-yl)sulfonyl)-1H-pyrazol-1-yl)propan-2-ol], the IC50 in series [1] was ≤ 10 µM; in series [3], ≤ 0.5 µM.

Regarding `O=S(=O)(c1nnc(Nc2c3c(cc4c2CCC4)CCC3)[nH]1)N1CCC2(CCOC2)CC1` [Example 360, 5-((2-oxa-8-azaspiro[4.5]decan-8-yl)sulfonyl)-N-(1,2,3,5,6,7-hexahydro-s-indacen-4-yl)-4H-1,2,4-triazol-3-amine], the IC50 in series [1] is ≤ 5 µM; in series [3] it was ≤ 0.5 µM.

Take `NS(=O)(=O)c1ccc(S(=O)(=O)c2nnc(Nc3c4c(cc5c3CCC5)CCC4)[nH]2)cc1` [Example 366, 4-((5-((1,2,3,5,6,7-hexahydro-s-indacen-4-yl)amino)-4H-1,2,4-triazol-3-yl)sulfonyl)benzenesulfonamide]: the IC50 was ≤ 10 µM in series [1] and ≤ 0.5 µM in series [3].

For the compound `Cc1cc2c(c(Nc3nnc(S(=O)(=O)c4ccccc4)[nH]3)c1-c1ccnc(OC3CCOCC3)c1)CCC2` [Example 370, N-(6-methyl-5-(2-((tetrahydro-2H-pyran-4-yl)oxy)pyridin-4-yl)-2,3-dihydro-1H-inden-4-yl)-5-(phenylsulfonyl)-4H-1,2,4-triazol-3-amine], the values for the IC50 in series [1] and in series [3] were ≤ 5 µM and ≤ 0.5 µM, respectively.
